# Data as given in patent publication US9303012B2, “Pyridine-2-amides useful as CB2 agonists” (Hoffmann-La Roche Inc., priority 2012, dated 2016).
# Columns and labels:
# [1] = biological target: human CB1 receptors (Homo sapiens (Human), UniProt P21554); assay: functional cAMP assay, CHO cells expressing human CB1 receptors; assay type: cell-based
# Summary of the method: (§1)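 CHO-hCB1/hCB2 cells, KRB + 1 mM IBMX preincubation 30 min 30 °C; cpd 30 min 30 °C; lysis + TR-FRET cAMP detection, 2 h RT; cAMP from std curve; EC50.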
# [2] = biological target: human CB2 receptors (Homo sapiens (Human), UniProt P34972); assay: functional cAMP assay, CHO cells expressing human CB2 receptors; assay type: cell-based
# Chain of human CB2 receptors (P34972 whole entry): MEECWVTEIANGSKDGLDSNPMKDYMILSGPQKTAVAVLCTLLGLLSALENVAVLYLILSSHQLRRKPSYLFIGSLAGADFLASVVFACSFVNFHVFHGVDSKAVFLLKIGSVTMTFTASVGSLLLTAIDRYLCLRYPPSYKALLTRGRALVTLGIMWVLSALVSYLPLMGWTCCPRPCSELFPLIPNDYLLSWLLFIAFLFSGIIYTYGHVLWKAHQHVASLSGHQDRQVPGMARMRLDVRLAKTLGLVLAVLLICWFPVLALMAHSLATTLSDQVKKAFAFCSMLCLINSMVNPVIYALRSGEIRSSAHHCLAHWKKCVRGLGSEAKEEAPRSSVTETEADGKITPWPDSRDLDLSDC
# Summary of the method: as §1
# Chain of human CB1 receptors (P21554 whole entry): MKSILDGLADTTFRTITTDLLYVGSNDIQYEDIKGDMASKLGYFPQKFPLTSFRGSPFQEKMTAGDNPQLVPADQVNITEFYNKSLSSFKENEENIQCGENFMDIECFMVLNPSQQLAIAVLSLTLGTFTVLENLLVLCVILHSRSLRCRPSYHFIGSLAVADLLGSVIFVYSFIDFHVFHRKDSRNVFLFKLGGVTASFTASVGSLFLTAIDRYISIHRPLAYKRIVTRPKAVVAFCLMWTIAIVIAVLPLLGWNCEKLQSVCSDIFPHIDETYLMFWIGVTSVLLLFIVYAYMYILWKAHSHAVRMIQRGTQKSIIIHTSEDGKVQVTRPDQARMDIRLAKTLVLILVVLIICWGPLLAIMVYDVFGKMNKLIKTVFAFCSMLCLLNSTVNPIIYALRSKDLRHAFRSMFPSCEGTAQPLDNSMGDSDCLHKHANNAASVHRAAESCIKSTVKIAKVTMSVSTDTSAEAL
smiles,measurement,setting,value
"CC(C)(C)N(CC(N)=O)C(=O)c1ccc(N2CC(F)(F)C2)c(OCC2CC2)n1 [Example 35, 6-Cyclopropylmethoxy-5-(3,3-difluoro-azetidin-1-yl)-pyridine-2-carboxylic acid tert-butyl-carbamoylmethyl-amide]",EC50,[1],> 10 µM
same,EC50,[2],0.183 µM
"NC(=O)C1CCCCN1C(=O)c1ccc(C2CC2)c(OCC2CC2)n1 (centres unmarked) [Example 88, 1-(5-Cyclopropyl-6-cyclopropylmethoxy-pyridine-2-carbonyl)-piperidine-2-carboxylic acid amide]",EC50,[1],> 10 µM
same,EC50,[2],0.18 µM
"CN(C)C(=O)CN(C(=O)c1ccc(N2CC(F)(F)C2)c(OCC2CC2)n1)C(C)(C)C [Example 27, 6-Cyclopropylmethoxy-5-(3,3-difluoro-azetidin-1-yl)-pyridine-2-carboxylic acid tert-butyl-dimethylcarbamoylmethyl-amide]",EC50,[1],> 10 µM
same,EC50,[2],0.774 µM
"CC(C)CS(=O)(=O)c1nc(C(=O)N(C)C(C)(C)C)ccc1C1CC1 [Example 6, 5-Cyclopropyl-6-(2-methyl-propane-1-sulfonyl)-pyridine-2-carboxylic acid tert-butyl-methyl-amide]",EC50,[1],> 10 µM
same,EC50,[2],0.106 µM
"CCN(CCOC)C(=O)c1ccc(N2CC(F)(F)C2)c(OCC2CC2)n1 [Example 39, 6-Cyclopropylmethoxy-5-(3,3-difluoro-azetidin-1-yl)-pyridine-2-carboxylic acid ethyl-(2-methoxy-ethyl)-amide]",EC50,[1],> 10 µM
same,EC50,[2],0.142 µM
"CCC1(CC)C(=O)NCCN1C(=O)c1ccc(N2CC(F)(F)C2)c(OCC2CC2)n1 [Example 29, 4-[6-Cyclopropylmethoxy-5-(3,3-difluoro-azetidin-1-yl)-pyridine-2-carbonyl]-3,3-diethyl-piperazin-2-one]",EC50,[1],> 10 µM
same,EC50,[2],0.414 µM
"O=C(c1ccc(N2CC(F)(F)C2)c(OCC2CC2)n1)N1CCC12COC2 [Example 10, [6-Cyclopropylmethoxy-5-(3,3-difluoro-azetidin-1-yl)-pyridin-2-yl]-(6-oxa-1-aza-spiro[3.3]hept-1-yl)-methanone]",EC50,[1],> 10 µM
same,EC50,[2],0.661 µM
"CC(=O)NC1CCN(C(=O)c2ccc(N3CC(F)(F)C3)c(OCC3CC3)n2)C1 (centres unmarked) [Example 41, N-{1-[6-Cyclopropylmethoxy-5-(3,3-difluoro-azetidin-1-yl)-pyridine-2-carbonyl]-pyrrolidin-3-yl}-acetamide]",EC50,[1],> 10 µM
same,EC50,[2],0.966 µM
"NC(=O)[C@@H]1CCCCN1C(=O)c1ccc(C2CC2)c(OCC2CC2)n1 [Example 92, (−)-1-(5-Cyclopropyl-6-cyclopropylmethoxy-pyridine-2-carbonyl)-piperidine-2-carboxylic acid amide]",EC50,[1],> 10 µM
same,EC50,[2],0.101 µM
"CC1(C)CCCN1C(=O)c1ccc(N2CC(F)(F)C2)c(OCC2CC2)n1 [Example 18, [6-Cyclopropylmethoxy-5-(3,3-difluoro-azetidin-1-yl)-pyridin-2-yl]-(2,2-dimethyl-pyrrolidin-1-yl)-methanone]",EC50,[1],> 10 µM
same,EC50,[2],0.0006 µM
"O=C(c1ccc(N2CC(F)(F)C2)c(OCC2CC2)n1)N1CC(F)(C2CC2)C1 [Example 150, (3-Cyclopropyl-3-fluoroazetidin-1-yl)-[6-(cyclopropylmethoxy)-5-(3,3-difluoroazetidin-1-yl)pyridin-2-yl]methanone]",EC50,[1],> 10 µM
same,EC50,[2],0.008 µM
"NC(=O)[C@@H]1CC(F)(F)CN1C(=O)c1ccc(C2CC2)c(OCC2CCCO2)n1 (stereo partly drawn) [Example 75, (S)-1-{5-Cyclopropyl-6-[(R,S)-1-(tetrahydro-furan-2-yl)methoxy]-pyridine-2-arbonyl}-4,4-difluoro-pyrrolidine-2-carboxylic acid amide]",EC50,[1],> 10 µM
same,EC50,[2],0.0162 µM
"CC(C)C[C@H](c1cccnn1)N(C)C(=O)c1ccc(N2CC(F)(F)C2)c(OCC2CC2)n1 [Example 34, (+)-6-Cyclopropylmethoxy-5-(3,3-difluoro-azetidin-1-yl)-pyridine-2-carboxylic acid methyl-(3-methyl-1-pyridazin-3-yl-butyl)-amide]",EC50,[1],> 10 µM
same,EC50,[2],0.0911 µM
"O=C(c1ccc(N2CC(F)(F)C2)c(OCC2CC2)n1)N1CCCC12COC2 [Example 38, [6-Cyclopropylmethoxy-5-(3,3-difluoro-azetidin-1-yl)-pyridin-2-yl]-(2-oxa-5-aza-spiro[3.4]oct-5-yl)-methanone]",EC50,[1],> 10 µM
same,EC50,[2],0.212 µM
"O=C(c1ccc(N2CC(F)(F)C2)c(OCC2CC2)n1)N1CC(F)(F)C[C@H]1CO [Example 53, [6-Cyclopropylmethoxy-5-(3,3-difluoro-azetidin-1-yl)-pyridin-2-yl]-((S)-4,4-difluoro-2-hydroxymethyl-pyrrolidin-1-yl)-methanone]",EC50,[1],> 10 µM
same,EC50,[2],0.0037 µM
"COC[C@H]1CCCN1C(=O)c1ccc(N2CC(F)(F)C2)c(OCC2CC2)n1 [Example 46, [6-Cyclopropylmethoxy-5-(3,3-difluoro-azetidin-1-yl)-pyridin-2-yl]-((R)-2-methoxymethyl-pyrrolidin-1-yl)-methanone]",EC50,[1],> 10 µM
same,EC50,[2],0.36 µM
"NC(=O)[C@@H]1CC(F)(F)CN1C(=O)c1ccc(N2CC(F)(F)C2)c(OCCF)n1 [Example 147, (2S)-1-[5-(3,3-Difluoroazetidin-1-yl)-6-(2-fluoroethoxyl)pyridine-2-carbonyl]-4,4-difluoro-pyrrolidine-2-carboxamide]",EC50,[1],> 10 µM
same,EC50,[2],1.17 µM
"O=C(c1ccc(N2CC(F)(F)C2)c(OCC2CC2)n1)N1CCCC12CC2 [Example 57, (4-Aza-spiro[2.4]hept-4-yl)-[6-cyclopropylmethoxy-5-(3,3-difluoro-azetidin-1-yl)-pyridin-2-yl]-methanone]",EC50,[1],> 10 µM
same,EC50,[2],0.0018 µM
"CCOC(=O)C1C2CN(C(=O)c3ccc(N4CC(F)(F)C4)c(OCC4CC4)n3)CC21 (centres unmarked) [Example 107, 3-[6-Cyclopropylmethoxy-5-(3,3-difluoro-azetidin-1-yl)-pyridine-2-carbonyl]-3-aza-bicyclo[3.1.0]hexane-6-carboxylic acid ethyl ester]",EC50,[1],> 10 µM
same,EC50,[2],0.757 µM
"CC1(C)C[C@H](C(N)=O)N(C(=O)c2ccc(N3CC(F)(F)C3)c(OCC3CC3)n2)C1 [Example 77, (+)-1-[6-Cyclopropylmethoxy-5-(3,3-difluoro-azetidin-1-yl)-pyridine-2-carbonyl]-4,4-dimethyl-pyrrolidine-2-carboxylic acid amide]",EC50,[1],> 10 µM
same,EC50,[2],0.194 µM
"O=C(c1ccc(C2CC2)c(Cc2ccc(F)cc2)n1)N1CCCC12CCNCC2 [Example 113, [5-Cyclopropyl-6-(4-fluoro-benzyl)-pyridin-2-yl]-(1,8-diaza-spiro[4.5]dec-1-yl)-methanone]",EC50,[1],> 10 µM
same,EC50,[2],0.212 µM
"CC1C(c2ccccc2)CCCN1C(=O)c1ccc(N2CC(F)(F)C2)c(OCC2CC2)n1 (centres unmarked) [Example 64, [6-Cyclopropylmethoxy-5-(3,3-difluoro-azetidin-1-yl)-pyridin-2-yl]-(2-methyl-3-phenyl-piperidin-1-yl)-methanone]",EC50,[1],> 10 µM
same,EC50,[2],0.0405 µM
"CC1(C)CCCN1C(=O)c1ccc(OCC2CC2)c(Cl)n1 [Example 47, (6-Chloro-5-cyclopropylmethoxy-pyridin-2-yl)-(2,2-dimethyl-pyrrolidin-1-yl)-methanone]",EC50,[1],> 10 µM
same,EC50,[2],0.113 µM
"NC(=O)[C@@H]1CC(F)(F)CN1C(=O)c1ccc(C2(O)CCC2)c(OCC2CC2)n1 [Example 129, (2S)-1-[6-(Cyclopropylmethoxy)-5-(1-hydroxycyclobutyl)pyridine-2-carbonyl]-4,4-difluoropyrrolidine-2-carboxamide]",EC50,[1],> 10 µM
same,EC50,[2],0.0758 µM
"NC(=O)[C@H]1CCCCN1C(=O)c1ccc(C2CC2)c(OCC2CC2)n1 [Example 91, (+)-1-(5-Cyclopropyl-6-cyclopropylmethoxy-pyridine-2-carbonyl)-piperidine-2-carboxylic acid amide]",EC50,[1],> 10 µM
same,EC50,[2],0.893 µM
"CC1(C)C[C@@H]2C[C@@](C)(CN2C(=O)c2ccc(N3CC(F)(F)C3)c(OCC3CC3)n2)C1 [Example 45, [6-Cyclopropylmethoxy-5-(3,3-difluoro-azetidin-1-yl)-pyridin-2-yl]-((1S,5R)-1,3,3-trimethyl-6-aza-bicyclo[3.2.1]oct-6-yl)-methanone]",EC50,[1],> 10 µM
same,EC50,[2],0.0068 µM
"O=C(c1ccc(N2CC(F)(F)C2)c(OCC2CC2)n1)N1[C@@H]2CC[C@H]1COC2 [Example 86, [6-Cyclopropylmethoxy-5-(3,3-difluoro-azetidin-1-yl)-pyridin-2-yl]-(1R,5S)-3-oxa-8-aza-bicyclo[3.2.1]oct-8-yl-methanone]",EC50,[1],> 10 µM
same,EC50,[2],0.0727 µM
"O=C(c1ccc(C2CC2)c(OCC2CC2)n1)N1CCC(CO)(C(F)(F)F)C1 (centres unmarked) [Example 142, [5-Cyclopropyl-6-(cyclopropylmethoxy)pyridin-2-yl]-[3-(hydroxymethyl)-3-(trifluoromethyl)pyrrolidin-1-yl]methanone]",EC50,[1],> 10 µM
same,EC50,[2],0.0263 µM
"CC1(C)C(=O)NCCN1C(=O)c1ccc(N2CC(F)(F)C2)c(OCC2CC2)n1 [Example 28, 4-[6-Cyclopropylmethoxy-5-(3,3-difluoro-azetidin-1-yl)-pyridine-2-carbonyl]-3,3-dimethyl-piperazin-2-one]",EC50,[1],> 10 µM
same,EC50,[2],0.414 µM
"COCCN(C(=O)c1ccc(N2CC(F)(F)C2)c(OCC2CC2)n1)C(C)(C)CO [Example 19, 6-Cyclopropylmethoxy-5-(3,3-difluoro-azetidin-1-yl)-pyridine-2-carboxylic acid (2-hydroxy-1,1-dimethyl-ethyl)-(2-methoxy-ethyl)-amide]",EC50,[1],> 10 µM
same,EC50,[2],0.856 µM
"NC(=O)C1CSCN1C(=O)c1ccc(C2CC2)c(OCC2CC2)n1 (centres unmarked) [Example 96, 3-(5-Cyclopropyl-6-cyclopropylmethoxy-pyridine-2-carbonyl)-thiazolidine-4-carboxylic acid amide]",EC50,[1],> 10 µM
same,EC50,[2],0.103 µM
